# Biological target: c-MET (Homo sapiens, UniProt P08581)
# Test: Biochemical kinase assay (33P-ATP, filter-binding)
# Details: radiometric 33P-ATP filter-binding kinase reaction, 20 min preincubation, 2 hours at room temperature
# Experimental: Reaction Buffer: 20 mM Hepes (pH 7.5), 10 mM MgCl2, 1 mM EGTA, 0.02%, Brij35, 0.02 mg/mL BSA, 0.1 mM Na3VO4, 2 mM DTT and 1% DMSO.
# Required cofactors were added individually to each kinase reaction.
# The testing compounds were dissolved in 100% DMSO to specific concentration. The serial dilution was conducted by Integra Viaflo Assist in DMSO.
# • 1. Prepare substrate in freshly prepared Reaction Buffer. • 2. Deliver any required cofactors to the substrate solution above. • 3. Deliver kinase into the substrate solution and gently mix. • 4. Deliver compounds in 100% DMSO into the kinase reaction mixture by Acoustic technology (Echo550; nanoliter range), incubate for 20 min at room temp. • 5. Deliver ^33P-ATP (Specific activity 10 μCi/μL) into the reaction mixture to initiate the reaction. • 6. Incubate for 2 hours at room temperature. • 7. Detect radioactivity by filter-binding method. • 8. Kinase activity data were expressed as the percent remaining kinase activity in test samples compared to vehicle (DMSO) reactions. IC50 values and curve fits were obtained using Prism (GraphPad Software) (Table 1).
# Chain of c-MET (P08581 25-1390): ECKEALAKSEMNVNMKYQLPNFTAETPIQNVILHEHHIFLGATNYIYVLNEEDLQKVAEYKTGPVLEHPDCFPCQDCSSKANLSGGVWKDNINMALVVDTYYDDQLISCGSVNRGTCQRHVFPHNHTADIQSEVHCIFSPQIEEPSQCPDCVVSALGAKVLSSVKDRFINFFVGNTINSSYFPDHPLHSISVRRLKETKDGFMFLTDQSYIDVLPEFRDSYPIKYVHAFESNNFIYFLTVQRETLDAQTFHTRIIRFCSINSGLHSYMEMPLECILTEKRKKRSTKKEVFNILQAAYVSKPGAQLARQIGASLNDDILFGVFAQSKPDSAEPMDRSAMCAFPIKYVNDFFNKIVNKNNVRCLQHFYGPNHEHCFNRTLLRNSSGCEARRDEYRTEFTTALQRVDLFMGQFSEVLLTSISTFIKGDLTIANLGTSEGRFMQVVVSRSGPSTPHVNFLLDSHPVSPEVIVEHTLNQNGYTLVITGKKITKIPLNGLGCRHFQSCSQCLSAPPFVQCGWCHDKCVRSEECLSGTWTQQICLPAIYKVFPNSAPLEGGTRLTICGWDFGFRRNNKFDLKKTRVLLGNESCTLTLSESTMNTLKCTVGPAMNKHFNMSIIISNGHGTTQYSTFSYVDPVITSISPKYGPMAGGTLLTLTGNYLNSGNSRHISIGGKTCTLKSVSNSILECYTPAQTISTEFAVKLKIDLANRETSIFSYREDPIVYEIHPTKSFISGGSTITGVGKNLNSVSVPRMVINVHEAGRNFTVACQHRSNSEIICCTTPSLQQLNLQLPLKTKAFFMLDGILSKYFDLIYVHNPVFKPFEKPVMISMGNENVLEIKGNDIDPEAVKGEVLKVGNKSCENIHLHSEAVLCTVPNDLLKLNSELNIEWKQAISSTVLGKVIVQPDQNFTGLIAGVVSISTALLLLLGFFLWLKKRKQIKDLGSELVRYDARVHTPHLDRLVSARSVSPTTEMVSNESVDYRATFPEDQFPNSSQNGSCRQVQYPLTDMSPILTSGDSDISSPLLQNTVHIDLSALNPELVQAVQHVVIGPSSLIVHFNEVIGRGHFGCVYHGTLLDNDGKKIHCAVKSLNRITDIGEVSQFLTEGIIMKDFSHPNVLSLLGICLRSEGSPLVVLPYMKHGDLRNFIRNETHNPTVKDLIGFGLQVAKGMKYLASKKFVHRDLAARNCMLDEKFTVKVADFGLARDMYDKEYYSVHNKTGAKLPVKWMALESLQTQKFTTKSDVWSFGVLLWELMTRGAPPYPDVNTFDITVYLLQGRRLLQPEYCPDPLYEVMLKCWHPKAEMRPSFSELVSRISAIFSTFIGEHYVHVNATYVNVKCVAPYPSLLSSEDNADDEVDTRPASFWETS
row,Compound,IC50
1,"CP(C)(=O)c1cnc2nnn(Cc3ccc4ncccc4c3)c2n1 [Example 18, Dimethyl(1-(quinolin-6-ylmethyl)-1H-[1,2,3]triazolo[4,5-b]pyrazin-6-yl)phosphine Oxide]",1000 to 6000 nM
2,"CP(C)(=O)c1ccc(-c2cnc3nnn(Cc4ccc5ncccc5c4)c3n2)c(F)c1 [Example 4, (3-Fluoro-4-(1-(quinolin-6-ylmethyl)-1H-[1,2,3]triazolo[4,5-b]pyrazin-6-yl)phenyl)dimethylphosphine oxide]",11 to 20 nM
3,"Cn1cc2cc(Cn3nnc4ncc(-c5ccc(P(C)(C)=O)c(F)c5)nc43)ccc2n1 [Example 22, (2-Fluoro-4-(1-((2-methyl-2H-indazol-5-yl)methyl)-1H-[1,2,3]triazolo[4,5-b]pyrazin-6-yl)phenyl)dimethylphosphine Oxide]",< 10 nM
4,"CCOP(C)(=O)Cc1ccc(-c2cnc3nnn(Cc4ccc5ncccc5c4)c3n2)cc1 (stereo not shown) [Example 2, Ethyl methyl(4-(1-(quinolin-6-ylmethyl)-1H-[1,2,3]triazolo[4,5-b]pyrazin-6-yl)benzyl)-phosphinate]",< 10 nM
5,"CP(C)(=O)Cn1cc(-c2cnc3nnn(Cc4ccc5ncccc5c4)c3n2)cn1 [Example 9, Dimethyl((4-(1-(quinolin-6-ylmethyl)-1H-[1,2,3]triazolo[4,5-b]pyrazin-6-yl)-1H-pyrazol-1-yl)methyl)phosphine Oxide]",21 to 100 nM
6,"CP(C)(=O)c1ccc(Nc2cnc3nnn(Cc4ccc5ncccc5c4)c3n2)cc1 [Example 11, Dimethyl(4-((1-(quinolin-6-ylmethyl)-1H-[1,2,3]triazolo[4,5-b]pyrazin-6-yl)amino)phenyl)phosphine Oxide]",< 10 nM
7,"Cn1cc2cc(Cn3nnc4ncc(-c5ccc(P(C)(C)=O)c(F)c5)nc43)c(F)cc2n1 [Example 21, (2-fluoro-4-(1-((6-fluoro-2-methyl-2H-indazol-5-yl)methyl)-1H-[1,2,3]triazolo[4,5-b]pyrazin-6-yl)phenyl)-dimethylphosphine oxide]",< 10 nM
8,"CP(=O)(O)Cc1ccc(-c2cnc3nnn(Cc4ccc5ncccc5c4)c3n2)cc1 [Example 3, Methyl(4-(1-(quinolin-6-ylmethyl)-1H-[1,2,3]triazolo[4,5-b]pyrazin-6-yl)benzyl)-phosphinic Acid]",< 10 nM
9,"CP(C)(=O)c1ccc(-c2cnc3nnn(Cc4ccc5ncccc5c4)c3n2)cc1F [Example 5, (2-Fluoro-4-(1-(quinolin-6-ylmethyl)-1H-[1,2,3]triazolo[4,5-b]pyrazin-6-yl)phenyl)dimethyl-phosphine Oxide]",< 10 nM
10,"CP(C)(=O)c1ccc(Nc2cnc3nnn(Cc4ccc5ncccc5c4)c3n2)cc1F [Example 12, (2-Fluoro-4-((1-(quinolin-6-ylmethyl)-1H-[1,2,3]triazolo[4,5-b]pyrazin-6-yl)amino)phenyl)dimethylphosphine Oxide]",< 10 nM

# Second part, the compound after the results:
row,IC50,Compound
1,11 to 20 nM,"CP(C)(=O)c1ccc(-c2cnc3nnn(Cc4ccc5c(c4)CCO5)c3n2)cc1 [Example 16, (4-(1-((2,3-Dihydrobenzofuran-5-yl)methyl)-1H-[1,2,3]triazolo[4,5-b]pyrazin-6-yl)phenyl)dimethylphosphine Oxide]"
2,< 10 nM,"CP(C)(=O)c1ccc(-c2cnc3nnn(Cc4ccc5ncccc5c4)c3n2)cc1 [Example 1, Dimethyl(4-(1-(quinolin-6-ylmethyl)-1H-[1,2,3]triazolo[4,5-b]pyrazin-6-yl)phenyl)-phosphine oxide]"
3,< 10 nM,"CP(C)(=O)c1ccc(-c2cnc3nnn(Cc4ccc5nccn5c4)c3n2)cc1 [Example 6, (4-(1-(Imidazo[1,2-a]pyridin-6-ylmethyl)-1H-[1,2,3]triazolo[4,5-b]pyrazin-6-yl)phenyl)dimethylphosphine Oxide]"
4,21 to 100 nM,"CP(C)(=O)Cn1cc(-c2cnc3nnn(Cc4ccc5nccn5c4)c3n2)cn1 [Example 10, ((4-(1-(Imidazo[1,2-a]pyridin-6-ylmethyl)-1H-[1,2,3]triazolo[4,5-b]pyrazin-6-yl)-1H-pyrazol-1-yl)methyl)dimethylphosphine Oxide]"
5,< 10 nM,"CC(c1ccc2nccn2c1)n1nnc2ncc(-c3ccc(P(C)(C)=O)cc3)nc21 (stereo not shown) [Example 15, (4-(1-(1-(Imidazo[1,2-a]pyridin-6-yl)ethyl)-1H-[1,2,3]triazolo[4,5-b]pyrazin-6-yl)phenyl)dimethylphosphine Oxide]"
6,< 10 nM,"CC(c1ccc2ncccc2c1)n1nnc2ncc(-c3ccc(P(C)(C)=O)cc3)nc21 (stereo not shown) [Example 19, Dimethyl(4-(1-(1-(quinolin-6-yl)ethyl)-1H-[1,2,3]triazolo[4,5-b]pyrazin-6-yl)phenyl)phosphine Oxide]"
7,21 to 100 nM,"CP(C)(=O)c1cccc(-c2ccc3nnc(C(F)(F)c4ccc5nccn5c4)n3n2)c1 [Example 13, (3-(3-(Difluoro(imidazo[1,2-a]pyridin-6-yl)methyl)-[1,2,4]triazolo[4,3-b]pyridazin-6-yl)phenyl)dimethylphosphine Oxide]"
8,11 to 20 nM,"CP(C)(=O)c1cccc(-c2cnc3nnn(Cc4ccc5nccn5c4)c3n2)c1 [Example 7, (3-(1-(Imidazo[1,2-a]pyridin-6-ylmethyl)-1H-[1,2,3]triazolo[4,5-b]pyrazin-6-yl)phenyl)-dimethylphosphine Oxide]"
9,11 to 20 nM,"CP(C)(=O)c1cccc(-c2cnc3nnn(Cc4ccc5ncccc5c4)c3n2)c1 [Example 8, Dimethyl(3-(1-(quinolin-6-ylmethyl)-1H-[1,2,3]triazolo[4,5-b]pyrazin-6-yl)phenyl)phosphine Oxide]"
10,< 10 nM,"Cn1cc2cc(Cn3nnc4ncc(-c5ccc(P(C)(C)=O)cc5)nc43)c(F)cc2n1 [Example 20, (4-(1-((6-Fluoro-2-methyl-2H-indazol-5-yl)methyl)-1H-[1,2,3]triazolo[4,5-b]pyrazin-6-yl)phenyl)dimethylphosphine Oxide]"
11,21 to 100 nM,"CP(C)(=O)c1ccc(-c2cnc3nnn(Cc4ccc5ncc(F)n5c4)c3n2)cc1 [Example 17, (4-(1-((3-Fluoroimidazo[1,2-a]pyridin-6-yl)methyl)-1H-[1,2,3]triazolo[4,5-b]pyrazin-6-yl)phenyl)dimethylphosphine Oxide]"
12,1000 to 6000 nM,"CP(C)(=O)c1ccc(-c2ccc3nnc(C(F)(F)c4ccc5nccn5c4)n3n2)cc1 [Example 14, (4-(3-(Difluoro(imidazo[1,2-a]pyridin-6-yl)methyl)-[1,2,4]triazolo[4,3-b]pyridazin-6-yl)phenyl)dimethylphosphine Oxide]"

# Source: US12258365B2, “Organophosphorus-substituted compounds as c-MET inhibitors and therapeutic uses thereof” (BETA PHARMA, INC., priority 2018, dated 2025)
